Experimental data reported in PMC8401923, “Processing Impact on In Vitro and In Vivo Performance of Solid Dispersions—A Comparison between Hot-Melt Extrusion and Spray Drying” (Pharmaceutics, 2021).
≈ marks a conversion by molar mass, not a printed value. Where two headings read alike, the source gives them in different places.

Legend:
Type in all cases: physicochemical
[1] = Two-stage biorelevant dissolution (SGF then FaSSIF)
Procedure: Simulated gastric fluid (SGF) was made with sodium chloride (34.2 mM), and the pH was adjusted to 1.8 with 12N HCl. The 2× fasted state simulated intestinal fluid (FaSSIF) was prepared using simulated intestinal fluid (SIF) powder (purchased from Biorelevant.com Ltd., London, UK), sodium phosphate monobasic monohydrate (114.5 mM), and sodium chloride (423.7 mM), and the pH was adjusted to 6.9 [35, 36].
Two-stage dissolution was performed on the solid dispersion powder at the dose relevant level of drug quantity using the Distek Model 2500 dissolution system (North Brunswick, NJ USA) with USP Apparatus 2 (paddles) setup. The paddles were operated at 100 rpm, and the dissolution medium was maintained at 37 ± 0.5 °C. The SGF medium of 250 mL was added for the first stage, and then FaSSIF medium of 250 mL at 30 min was added for the second stage to achieve the correct pH, ionic strength, and bile salt levels for FaSSIF. The time points that the sample was withdrawn were indicated by the dots in the dissolution plots. At each time point, ~2 mL was sampled and syringe-filtered (0.45 µm PVDF filter). The filtrate was diluted with diluent (water:acetonitrile = 1:1 v/v) and analyzed by an Agilent HPLC (Santa Clara, CA, USA) with a UV detector. […]

pKa of posaconazole = experiment: pKa of posaconazole
Excerpt: (§1) Table 1 Physical/chemical properties of posaconazole.

XPS surface composition = settings: 25% bulk drug loading with HPMCAS
Procedure: X-ray Photoelectron Spectroscopy (XPS). XPS experiments were performed using a Physical Electronics Quantera SXM instrument equipped with a monochromatic Al Kα x-ray source (hν = 1486.6 eV) and a concentric hemispherical analyzer. Charge neutralization was performed using low energy (1.5 eV) electrons and low energy (8 V) Ar^+ ions. The binding energy axis was calibrated using sputter cleaned Cu foil (Cu 2p3/2 = 932.62 eV) and Au foil (Au 4f7/2 = 83.96 eV). Spectra were charge references to C-(C,H) at 284.8 eV. All measurements were performed at an electron takeoff angle of 45° relative to the sample platen plane.

[2] = Solubility of crystalline posaconazole
Log P of posaconazole = experiment: Log P of posaconazole
Excerpt: as §1

In the case of `CC[C@@H]([C@H](C)O)n1ncn(-c2ccc(N3CCN(c4ccc(OC[C@@H]5CO[C@@](Cn6cncn6)(c6ccc(F)cc6F)C5)cc4)CC3)cc2)c1=O` [posaconazole], the “drug release in SGF stage (in words)” value ([1]; SGF pH 1.8, first 30 min) is reported as “the percent dissolved is high”, the “drug release in FaSSIF stage (in words)” value ([1]; second stage, FaSSIF) is reported as “significantly drops to approximately the crystalline solubility” and the pKa (pKa of posaconazole; piperazine N) is reported as 3.6. The pKa (pKa of posaconazole; triazole N) was 4.6, the “~API Loading on Surface Based on F and N” value (XPS surface composition) was ~100% and the solubility ([2]; fasted state simulated intestinal fluid (FaSSIF), fassif, read-out: Solubility) was 2 µg/mL (≈ 2.85 µM). It also gave a solubility ([2]; pH 1, read-out: Solubility) of 790 µg/mL (≈ 1130 µM), a solubility ([2]; pH 3, read-out: Solubility) of 3 µg/mL (≈ 4.28 µM) and a solubility ([2]; pH 7, read-out: Solubility) of 1 µg/mL (≈ 1.43 µM). For the same molecule, the solubility ([2]; simulated gastric fluid (SGF), pH 1.8, read-out: crystalline solubility) was ~790 µg/mL (≈ 1130 µM) and the logP (Log P of posaconazole) was 5.
